Data published in patent US20110152169A1, “SPARC ANTI-INFLAMMATORY ACTIVITY AND USES THEREOF” (priority 2008, published 2011).

What was measured:
Format in all cases: cell-based, human
OVCAR3 [1] = test: Matrigel invasion assay
Experimental: (§1) The invasiveness of SKOV3 and OVCAR3 transduced or not with Ad-GFP or Ad-GFP-SPARC as described in Example 1, in response to MCP-1, was assessed as previously described (Said et al., Am J Pathol, 167: 1739-52 (2005)). 1×10^5 cells per […] in the presence and absence of MCP-lwere added to the upper chamber of polycarbonate inserts ([…] pore size, Corning Costar, Corning, N.Y.) coated on ice with Growth factor—reduced Matrigel (BD Biosciences, Bedford, Mass.) diluted 1:3 in SFM. In some experiments, cells were pretreated with MCP-1 antibody (25 µg/ml) or its isotype control (50 μg/ml) for 30 minutes before stimulation. The bottom chambers contained complete growth medium. […] The migrated cells were counted in six fields after staining with hemacolor 3 stain (SOURCE?), using an inverted microscope equipped with a DFC 320 digital camera (Leica Microsystems, Wetzlar, Germany) under 200× magnification.
(§2) The proliferation and invasiveness of SKOV3 and OVCAR3 cells, transduced or not with Ad-GFP and Ad-GFP-SPARC, in response to PGE2, was determined as described in Example 3. The results shown in FIG. 5 are expressed as the mean±SEM of three independent experiments performed in quadruplicate (proliferation) or triplicate (invasion). *P<0.05, compared to the matched WT cells or Ad-GFP transduced cells. **P<0.05, compared to NS control cells.

SKOV3 [2] = test: Matrigel invasion assay
Experimental: as §1, §2

NF-κB promoter = NF-κB promoter luciferase reporter assay; details: SKOV3 and OVCAR3, concentration-dependent up to 5 nM
OVCAR3 [3] = test: Proliferation, CellTiter96 (MTS)
Experimental: (§3) The proliferation of SKOV3 and OVCAR3 transduced or not with Ad-GFP or Ad-GFP-SPARC as described in Example 1, in response to MCP-1, was assessed using a commercially available CellTiter96 kit (Promega) according to the manufacturer' instructions. The number of proliferating cells was determined colorimetrically by measuring the absorbance at 590 nm (0D590) of the dissolved formazan product after the addition of 3 -(4,5 -dimethylthiazol-2-yl)-5-(3 -carboxymethoxyphenyl)-2-(4-sulfophenyl)-2H-tetrazolium (MTS) for 3 hours.
as §2

SKOV3 [4] = test: Proliferation, CellTiter96 (MTS)
Experimental: as §3, §2

PGE2 = PGE2 level in conditioned medium, enzyme immunoassay
Experimental: LPA (50 μM) or exogenous SPARC (20 μg/ml) (SOURCE?) was included in some experiments.
SKOV3 and OVCAR3 cells were treated as described in Example 6, and PGE2 level was determined in the CM using a commercially available enzyme immunoassay kit (Cayman Inc.) according to the manufacturer's instructions.

uPA = uPA activity in conditioned medium, colorimetric assay; details: for inhibition of LPA-induced uPA activity: 24 hours
Experimental: uPA activity in CM of confluent monolayers (˜10^6 cells) of serum-starved SKOV3 and OVCAR3 was measured in WT cells stimulated for 24 hours with LPA (50 μM) in the presence and absence of SPARC (10 μg/ml). uPA activity in adenovirus-transduced SKOV3 and OVCAR3 stimulated or not with LPA, or cocultured with Meso301 monolayers, U937 macrophages (added in 0.22-μm transwell inserts), or in triple-culture systems was also measured. uPA activity in CM was measured using a commercially available colorimetric assay kit (Chemicon) according to the manufacturer's instructions. […] The results are mean±SEM of a representative of three independent experiments, each performed in duplicate. *P<0.05, compared to nonstimulated WT or Ad-GFP cells. **P<0.05, compared to matched WT or Ad-GFP condition. #P<0.05, compared to coculture of ovarian cancer cells with either Meso301 or U937 in two-cell culture systems.

8-isoprostane = 8-isoprostane level in conditioned medium, enzyme immunoassay
Experimental: SKOV3 and OVCAR3 were treated as described in Example 6, and the level of 8-isoprostane was determined in the CM using a commercially available enzyme immunoassay kit (Cayman Inc.) according to the manufacturer's instructions.

MCP-1 = MCP-1 protein secreted in conditioned medium, ELISA; details: 50 μM LPA
Experimental: Ovarian cancer cell lines were transduced for 24 hours with adenovirus expressing GFP (Ad-GFP) or adenovirus expressing GFP and SPARC (Ad-GFP-SPARC) in complete growth medium at a multiplicity of infection of 15 to 25 as described previously (Said et al., Am J Pathol, 170: 1054-63 (2007)).
Confluent monolayers (−106 cells, serum starved overnight) of wild type (WT) human ovarian cancer cell lines SKOV3 or OVCAR3, were stimulated with 50 μM lysophosphatidic acid (LPA) for 24 hours in the presence and absence of SPARC (10 μg/ml). Similarly, adenovirus-transduced SKOV3 and OVCAR3 were stimulated with 50 [M LPA for 24 to 48 hours. Alternatively, adenovirus-transduced SKOV3 and OVCAR3 were seeded onto confluent monolayers or cocultured with Meso301 for 24 to 48 hours. MCP-1 protein secreted in the conditioned medium (CM) of SKOV3 and OVCAR3 was determined by ELISA using a commercially available kit (RayBioTech, Inc., Norcross, Ga.). Controls included cells that were not stimulated (NS) with LPA.

MMP-2 and MMP-9 = test: Gelatin zymography of conditioned media
Experimental: Subconfluent monolayers of ovarian cancer cells, transduced or not with Ad-GFP and Ad-GFP-SPARC, were grown in six-well plates alone or in coculture with mesothelial cell monolayers and serum-starved in SFM overnight. U937 macrophages (2×10^6 cells/ml SFM) were cultured in 0.22-μm transwell chambers (Corning, Costar) alone, in cocultures without direct cell-cell contact with ovarian cancer cells, or in triple cultures with ovarian cancer cells and mesothelial cells for an additional 24 hours. LPA (50 μM) or exogenous SPARC (20 μg/ml) (SOURCE?) was included in some experiments. Cell culture conditioned media (CM) were collected, cleared by centrifugation, and concentrated five-fold using Centricon centrifugal filters (Millipore, Bedford, Mass.). […] CM equivalent to 200 μg of ovarian cancer cells, and/or U937 cells was analyzed by gelatin zymography as described previously (Said et al., Am J Pathol, 167: 1739-52 (2005)).

IL-6 = IL-6 in conditioned medium, ELISA; details: U937
Experimental: SKOV3 and OVCAR3 cells, transduced or not with Ad-GFP or Ad-GFP-SPARC, and U937 cells were cultured individually, in cocultures, or in triple cultures with Meso301 cells for twenty four hours, and the conditioned medium was assayed for IL-6 by ELISA as described in Example 1. The results shown in FIG. 3 represent the mean±SEM of one of three independent experiments, each performed in duplicate. *P<0.05, compared to matched WT or Ad-GFP. **P<0.05, compared to double cultures in the absence of mesothelial cells.

[5] = either cell line (SKOV3, OVCAR3)

With `CCCCC[C@H](O)/C=C/[C@H]1[C@H](O)CC(=O)[C@@H]1C/C=C\CCCC(=O)O` [PGE2, prostaglandin E2] the “proinvasive effect of PGE2” value (OVCAR3 [1]) was “concentration dependent”, the “proinvasive effect of PGE2” value (SKOV3 [2]) was “concentration dependent” and the “PGE2-induced NF-κB activation” value (NF-κB promoter) was “approximately three”. For the same molecule, the PGE2-stimulated proliferation (OVCAR3 [3]) was “concentration dependent” and the PGE2-stimulated proliferation (SKOV3 [4]) was “concentration dependent”.

With lysophosphatidic acid [LPA] the increase in PGE2 production by LPA stimulation (PGE2; SKOV3 and OVCAR) was 14 fold, the “LPA-induced increase in uPA activity” value (uPA; WT and Ad-GFP-transduced OVCAR3, LPA 50 μM) was 4.5 fold and the “LPA-induced increase in uPA activity” value (uPA; WT and Ad-GFP-transduced SKOV3, LPA 50 μM) was 4 fold. For the same molecule, the “increase in 8-isoprostane production by LPA stimulation” value (8-isoprostane; OVCAR) was about 2.5 fold, the “increase in 8-isoprostane production by LPA stimulation” value (8-isoprostane; SKOV3) was about 2.2 fold and the “increase of MCP-1 production after LPA stimulation” value (MCP-1; SKOV3 and OVCAR3, 48 hours) was “nine”. For the same molecule, the “levels of active MMP-9 after LPA stimulation” value (MMP-2 and MMP-9; OVCAR3 CM, LPA 50 μM) was “significantly increased”, the “levels of pro- and active MMP-9 after LPA stimulation” value (MMP-2 and MMP-9; SKOV3 CM, LPA 50 μM) was “significantly increased” and the “MMP-2 and MMP-9 activity after LPA” value (MMP-2 and MMP-9; U937 CM, LPA 50 μM) was “significantly increased”.

B1: Secreted protein acidic and rich in cysteine (protein, listed as Homo sapiens)
chain: APQQEALPDETEVVEETVAEVTEVSVGANPVQVEVGEFDDGAEETEEEVVAENPCQNHHCKHGKVCELDENNTPMCVCQDPTSCPAPIGEFEKVCSNDNKTFDSSCHFFATKCTLEGTKKGHKLHLDYIGPCKYIPPCLDSELTEFPLRMRDWLKNVLVTLYERDEDNNLLTEKQKLRVKKIHENEKRLEAGDHPVELLARDFEKNYNMYIFPVHWQFGQLDQHPIDGYLSHTELAPLRAPLIPMEHCTTRFFETCDLDNDKYIALDEWAGCFGIKQKDIDKDLVI
notes: matrix-associated protein added to cultures at 10 or 20 μg/ml
B1 was tested, and the “suppression of LPA-induced PGE2 production” value (PGE2; [5]) was 40%, the “decrease of baseline production of PGE2” value (PGE2; serum-starved SKOV3 and OVCAR3) was “up to 30%” and the “effect on IL-6 levels” value (IL-6) was “Neither exogenous SPARC nor overexpression of SPARC in U937 had any effect”. The “attenuation of constitutive uPA activity in CM” value (uPA; OVCAR3) was 29%, the “inhibition of LPA-induced uPA activity” value (uPA; OVCAR3, LPA 50 μM) was 36% and the “attenuation of constitutive uPA activity in CM” value (uPA; SKOV3) was 40%. The “inhibition of LPA-induced uPA activity” value (uPA; SKOV3, LPA 50 μM) was 76%, the “suppression of LPA-induced 8-isoprostane production” value (8-isoprostane; [5]) was “up to 26%” and the “decrease of basal 8-isoprostane (ROS) production” value (8-isoprostane; serum starved SKOV3 and OVCAR3) was 70%. The “inhibition of LPA-induced MCP-1 production” value (MCP-1; OVCAR3, 24 hours) was 59%, the “inhibition of LPA-induced MCP-1 production” value (MCP-1; OVCAR3, 48 hours) was 30% and the “inhibition of LPA-induced MCP-1 production” value (MCP-1; SKOV3, 24 hours) was 54%. The “inhibition of LPA-induced MCP-1 production” value (MCP-1; SKOV3, 48 hours) was 43% and the “LPA-induced activity of MMP-2 and MMP-9” value (MMP-2 and MMP-9; U937 CM, SPARC 20 μg/ml) was “markedly decreased”.
